Among the data in patent US10030036B2, “Method and dyes for detecting and destroying cancer cells” (Lahjavida, LLC, priority 2009, dated 2018) are λmax absorption and λmax emission values, retold here.

The nature of this data set: near infrared fluorescent spectral properties. The class given is physicochemical. From the text:
Some of these compounds in formula 1-8 and the compounds shown in Scheme 1 have variable water solubility, near infrared fluorescent spectral properties suitable for in-vivo tissue imaging (e.g. MHI-148 has λmax absorption 780 nm and high intensity λmax emission 800 nm (FIG. 1)), and have been tested to have similar activities in near infrared fluorescent imaging of tumor cells and inhibiting tumor cell growth in vitro, and permit selective destruction of any gold labeled cancer cells via radiofrequency treatment. The solubility of the labeled gold particles may be controlled by the dye molecules attached to the surface of gold particles or by additional solubilization groups attached to the gold particle surface as it is described by the literature or by prior art. Biodistribution of these gold particles are determined by the molecules attached to the gold particle surface and particle size.

For the compound `CC1(C)C(/C=C/C2=C(Cl)C(=C/C=C3\Cc4ccccc4N3CCCCCC(=O)O)/CCC2)=[N+](CCCCCC(=O)O)c2ccccc21` [MHI-148], the λmax absorption was found to be 780 nm. Under “high intensity”, this compound had a λmax emission of 800 nm.
